Reference: patent US12459951B2, “Compounds that interact with RAS superfamily proteins for treatment of cancers, inflammatory diseases, rasopathies, and fibrotic disease” (SHY Therapeutics, LLC, priority 2022, dated 2025)

Tests used:
[1] = Kinetic Solubility Assay in pH 7.4 Buffer + 2% DMSO; type: physicochemical; details: phosphate-buffered saline pH 7.4 with 2% DMSO, aqueous buffer, kinetic from dmso stock, 25° C., two hours
Summary of the method: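 Compound from 20 mM DMSO stock diluted to nominal 400 μM in PBS pH 7.4 with 2% DMSO, in duplicate, shaken 2 h at 25° C., then filtered. Filtrate quantified by UV absorbance (230-550 nm) against 10-200 μM calibration curves; effective range ~2-400 μM.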

JNK phosphorylation = assay: JNK Activation Assay (western blot), Panc-1; type: cell-based, human; details: at 10 μM, Panc-1 pancreatic cancer cell line; starred symbols = activation
Summary of the method: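 KRas G12C Panc-1 cells treated 6 h at 37 °C with compound at 10 μM (0.3% DMSO), or serial dilutions for IC50. In Method 1 cells were serum-starved overnight (0.5% FBS) then stimulated with 1.5 ng/ml EGF for 15 min; Method 2 used 10% FBS without stimulation. Phospho-JNK (Thr183/Tyr185) measured by western blot.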

cdc42 = biological target: T1, cdc42 (Homo sapiens, UniProt P60953); assay: Cdc42 GTP Binding Domain Inhibition Assay; details: read-out: Cdc42: % inh.
T1 construct: made in house
T1 sequence (P60953 whole entry, the tested form may be a part): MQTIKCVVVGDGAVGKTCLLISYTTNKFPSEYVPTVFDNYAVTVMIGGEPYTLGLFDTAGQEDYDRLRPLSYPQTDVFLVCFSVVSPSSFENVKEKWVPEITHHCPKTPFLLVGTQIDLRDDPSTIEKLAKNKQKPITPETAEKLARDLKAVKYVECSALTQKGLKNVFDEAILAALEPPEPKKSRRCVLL
Experimental: Protocol for Cdc42 and Rheb GTP Binding Domain Inhibition Assay
The following method was developed as specific assay for cdc42 and Rheb proteins.
• 25 mM Tris-HCl, pH 7.4 • 27 mM KCl • 137 mM NaCl • 1 mM MgCl2 • 1 mM DTT Buffer-II: • 50 mM Tris-HCl, pH 7.0 • 1 mM MgCl2 • 1 mM DTT
The small GTPases proteins cdc42 and Rheb were expressed as His-tagged proteins. For the assay, the cdc42 and Rheb purified small GTPases proteins were diluted in Buffer-I or Buffer-II to a final concentration of 10-30 μg/mL. 200 μL of each diluted protein was added to a nickel-coated 96-well plate and incubated overnight at […]. Then the protein solution was discarded and 200 μL of Buffer-I or Buffer-II was added to each well in the presence of 1% DMSO. Compounds to be tested were added to the protein-coated wells at final concentration of 20 μM, and incubated for 3 hours at room temperature with and without 10-30 μg/mL of Sos added to the final hour of the incubation. When performing IC50 measurements a serial dilution of all tested concentrations was added. Then Cy3-GTP or Cy5-GTP was added to each well to a final concentration of 100 nM. The labeled GTP was incubated for 45 minutes at room temperature. Following GTP incubation, wells were washed 3× in Buffer-I or Buffer-II and 200 μL of Buffer-I or Buffer-II was added to each well. Following washes, the amount of bound labeled-GTP was measured using a SpectraMax M3 (Molecular Devices).

| SMILES | solubility at 2 h [1] [µM] | inhibition at 20 µM (cdc42) [%] | % inh of JNK in Panc-1 (JNK phosphorylation) |
| --- | --- | --- | --- |
| Cc1c(-c2ccn(C(C)C)n2)cn2nc(-c3nccn3C)nc(Nc3ccn(C)n3)c12 [Compound 61, 6-(1-Isopropyl-1H-pyrazol-3-yl)-5-methyl-2-(1-methyl-1H-imidazol-2-yl)-N-(1-methyl-1H-pyrazol-3-yl)pyrrolo[2,1-f][1,2,4]triazin-4-amine] | – | 76 to 100 | H* (H* ≥ 100% activation) |
| COc1cccc(-c2cn3nc(-c4nccn4C)nc(N[C@H]4C[C@H](OC)C4)c3c2-c2ccccc2)c1Cl [Compound 32, 6-(2-Chloro-3-methoxyphenyl)-N-((1r,3r)-3-methoxycyclobutyl)-2-(1-methyl-1H-imidazol-2-yl)-5-phenylpyrrolo[2,1-f][1,2,4]triazin-4-amine] | – | 1 to 25 | H (H = 100% inhibition) |
| Cc1c(-c2ccn(C(C)C)n2)cn2nc(-c3nccn3C)nc(Nc3ncco3)c12 [Compound 60, N-(6-(1-Isopropyl-1H-pyrazol-3-yl)-5-methyl-2-(1-methyl-1H-imidazol-2-yl)pyrrolo[2,1-f][1,2,4]triazin-4-yl)oxazol-2-amine] | – | 1 to 25 | H* (H* ≥ 100% activation) |
| COc1cccc(-c2cn3nc(-c4nccn4C)nc(N[C@@H]4CC[C@@H](OC)C4)c3c2-c2ccccc2)c1F (racemic) [Compound 43, rac 6-(2-Fluoro-3-methoxyphenyl)-N-((1R,3R)-3-methoxycyclopentyl)-2-(1-methyl-1H-imidazol-2-yl)-5-phenylpyrrolo[2,1-f][1,2,4]triazin-4-amine] | – | 1 to 25 | H* (H* ≥ 100% activation) |
| COc1cc(Nc2nc(-c3nccn3C)nn3cc(-c4ccn(C(C)C)n4)c(C)c23)n[nH]1 [Compound 51, 6-(1-Isopropyl-1H-pyrazol-3-yl)-N-(5-methoxy-1H-pyrazol-3-yl)-5-methyl-2-(1-methyl-1H-imidazol-2-yl)pyrrolo[2,1-f][1,2,4]triazin-4-amine] | – | 50 to 75 | H* (H* ≥ 100% activation) |
| COc1cccc(-c2cn3nc(-c4nccn4C)nc(N[C@H]4C[C@H](OC)C4)c3c2-c2ccccn2)c1F [Compound 45, 6-(2-Fluoro-3-methoxyphenyl)-N-((1r,3r)-3-methoxycyclobutyl)-2-(1-methyl-1H-imidazol-2-yl)-5-(pyridin-2-yl)pyrrolo[2,1-f][1,2,4]triazin-4-amine] | – | 26 to 49 | H* (H* ≥ 100% activation) |
| COc1cccc(-c2cn3nc(-c4nccn4C)nc(N[C@@H]4CC[C@@H](OC)C4)c3c2-c2ccccn2)c1F (racemic) [Compound 46, rac 6-(2-Fluoro-3-methoxyphenyl)-N-((1R,3R)-3-methoxycyclopentyl)-2-(1-methyl-1H-imidazol-2-yl)-5-(pyridin-2-yl)pyrrolo[2,1-f][1,2,4]triazin-4-amine] | – | 50 to 75 | H* (H* ≥ 100% activation) |
| COc1cnc(Nc2nc(-c3nccn3C)nn3cc(-c4ccn(C(C)C)n4)c(C)c23)nc1 [Compound 56, 6-(1-Isopropyl-1H-pyrazol-3-yl)-N-(5-methoxypyrimidin-2-yl)-5-methyl-2-(1-methyl-1H-imidazol-2-yl)pyrrolo[2,1-f][1,2,4]triazin-4-amine] | – | 26 to 49 | H* (H* ≥ 100% activation) |
| Cc1c(-c2ccn(C(C)C)n2)cn2nc(-c3nccn3C)nc(Nc3ccncc3)c12 [Compound 52, 6-(1-Isopropyl-1H-pyrazol-3-yl)-5-methyl-2-(1-methyl-1H-imidazol-2-yl)-N-(pyridin-4-yl)pyrrolo[2,1-f][1,2,4]triazin-4-amine] | – | 1 to 25 | 0 (0 = 0% inhibition) |
| COCCO[C@H]1C[C@H](Nc2nc(-c3nccn3C)nn3cc(-c4cccc(OC)c4F)c(-c4ccccc4)c23)C1 [Compound 44, 6-(2-Fluoro-3-methoxyphenyl)-N-((1r,3r)-3-(2-methoxyethoxy)cyclobutyl)-2-(1-methyl-1H-imidazol-2-yl)-5-phenylpyrrolo[2,1-f][1,2,4]triazin-4-amine] | – | 26 to 49 | H* (H* ≥ 100% activation) |
| COc1cccc(-c2cn3nc(-c4nccn4C)nc(N[C@H]4C[C@H](OC)C4)c3c2-c2ccccc2)c1F [Compound 42, 6-(2-Fluoro-3-methoxyphenyl)-N-((1r,3r)-3-methoxycyclobutyl)-2-(1-methyl-1H-imidazol-2-yl)-5-phenylpyrrolo[2,1-f][1,2,4]triazin-4-amine] | – | 1 to 25 | H* (H* ≥ 100% activation) |

Second part, led by results:

| solubility at 2 h [1] [µM] | inhibition at 20 µM (cdc42) [%] | SMILES | % inh of JNK in Panc-1 (JNK phosphorylation) |
| --- | --- | --- | --- |
| < 10 | – | Cc1c(-c2ccn(C)n2)cn2nc(-c3nccn3C)nc(Nc3cc(-c4ccccn4)ccn3)c12 [Compound 248, N-([2,4′-Bipyridin]-2′-yl)-5-methyl-2-(1-methyl-1H-imidazol-2-yl)-6-(1-methyl-1H-pyrazol-3-yl)pyrrolo[2,1-f][1,2,4]triazin-4-amine] | – |
| < 10 | – | Cc1c(-c2ccn(C)n2)cn2nc(-c3nccn3C)nc(Nc3cc(C(C)C)[nH]n3)c12 [Compound 268, N-(5-Isopropyl-1H-pyrazol-3-yl)-5-methyl-2-(1-methyl-1H-imidazol-2-yl)-6-(1-methyl-1H-pyrazol-3-yl)pyrrolo[2,1-f][1,2,4]triazin-4-amine] | – |
| – | 76 to 100 | COc1ccc(-c2cn3nc(-c4nccn4C)nc(Nc4cc(OC)ncn4)c3c2C)cn1 [Compound 66, 6-(6-Methoxypyridin-3-yl)-N-(6-methoxypyrimidin-4-yl)-5-methyl-2-(1-methyl-1H-imidazol-2-yl)pyrrolo[2,1-f][1,2,4]triazin-4-amine] | H* (H* ≥ 100% activation) |
| < 10 | – | Cc1c(-c2ccn(C)n2)cn2nc(-c3nccn3C)nc(Nc3cc(-c4cccnc4)ccn3)c12 [Compound 250, N-([3,4′-Bipyridin]-2′-yl)-5-methyl-2-(1-methyl-1H-imidazol-2-yl)-6-(1-methyl-1H-pyrazol-3-yl)pyrrolo[2,1-f][1,2,4]triazin-4-amine] | – |
| – | 26 to 49 | Cc1c(-c2ccn(C(C)C)n2)cn2nc(-c3nccn3C)nc(Nc3nnc(C4CC4)o3)c12 [Compound 67, 5-Cyclopropyl-N-(6-(1-isopropyl-1H-pyrazol-3-yl)-5-methyl-2-(1-methyl-1H-imidazol-2-yl)pyrrolo[2,1-f][1,2,4]triazin-4-yl)-1,3,4-oxadiazol-2-amine] | H* (H* ≥ 100% activation) |
| – | 1 to 25 | Cc1c(-c2ccn(C(C)C)n2)cn2nc(-c3nccn3C)nc(Nc3nc(C4CC4)no3)c12 [Compound 70, 3-Cyclopropyl-N-(6-(1-isopropyl-1H-pyrazol-3-yl)-5-methyl-2-(1-methyl-1H-imidazol-2-yl)pyrrolo[2,1-f][1,2,4]triazin-4-yl)-1,2,4-oxadiazol-5-amine] | H* (H* ≥ 100% activation) |
| < 10 | – | CCOc1cc(Nc2nc(-c3nccn3C)nn3cc(-c4ccn(C)n4)c(C)c23)n[nH]1 [Compound 260, N-(5-Ethoxy-1H-pyrazol-3-yl)-5-methyl-2-(1-methyl-1H-imidazol-2-yl)-6-(1-methyl-1H-pyrazol-3-yl)pyrrolo[2,1-f][1,2,4]triazin-4-amine] | – |
| – | 76 to 100 | CCn1ccc(-c2cn3nc(-c4nccn4C)nc(Nc4cc(OC)ncn4)c3c2C)n1 [Compound 64, 6-(1-Ethyl-1H-pyrazol-3-yl)-N-(6-methoxypyrimidin-4-yl)-5-methyl-2-(1-methyl-1H-imidazol-2-yl)pyrrolo[2,1-f][1,2,4]triazin-4-amine] | H* (H* ≥ 100% activation) |
| – | 1 to 25 | COc1ccc(Nc2nc(-c3nccn3C)nn3cc(-c4ccn(C(C)C)n4)c(C)c23)cn1 [Compound 71, 6-(1-Isopropyl-1H-pyrazol-3-yl)-N-(6-methoxypyridin-3-yl)-5-methyl-2-(1-methyl-1H-imidazol-2-yl)pyrrolo[2,1-f][1,2,4]triazin-4-amine] | H* (H* ≥ 100% activation) |
| – | 26 to 49 | COc1cc(Nc2nc(-c3nccn3C)nn3cc(-c4cccc(OC)n4)c(C)c23)ncn1 [Compound 65, 6-(6-Methoxypyridin-2-yl)-N-(6-methoxypyrimidin-4-yl)-5-methyl-2-(1-methyl-1H-imidazol-2-yl)pyrrolo[2,1-f][1,2,4]triazin-4-amine] | H* (H* ≥ 100% activation) |
